Species: Rattus norvegicus
Test: DrugMatrix - Regimen: Daily Repeat
Type: toxicity, organism-based, Sprague-Dawley
Parameters: regimen Daily Repeat, gender Male, age 6-8 weeks
Conditions: in vivo, po, route oral GAVAGE, vehicle 100 % WATER; for ABSOLUTE BASOPHIL / ABSOLUTE EOSINOPHIL / ABSOLUTE LYMPHOCYTE / ABSOLUTE MONOCYTE / ABSOLUTE SEGMENTED NEUTROPHIL / BASOPHIL / EOSINOPHIL / ERYTHROCYTE COUNT / HEMATOCRIT / HEMOGLOBIN / LEUKOCYTE COUNT / LYMPHOCYTE / MEAN CORPUSCULAR HEMOGLOBIN / MEAN CORPUSCULAR HEMOGLOBIN CONCENTRATION / MEAN CORPUSCULAR VOLUME / MONOCYTE / NEUTROPHIL / NUCLEATED RED BLOOD CELLS / PLATELET COUNT: tissue Blood; for ALANINE AMINOTRANSFERASE / ALBUMIN / ALKALINE PHOSPHATASE / ASPARTATE AMINOTRANSFERASE / BLOOD UREA NITROGEN / CARBON DIOXIDE / CHLORIDE / CHOLESTEROL / CREATINE PHOSPHOKINASE / CREATININE / GLUCOSE / LACTATE DEHYDROGENASE / LIPASE / PHOSPHORUS / POTASSIUM / SODIUM / TOTAL BILIRUBIN / TOTAL PROTEIN / URIC ACID: tissue Plasma
[1] = 0 mg/kg, 72 h, dose level Control, time 3 day
[2] = 0 mg/kg, 120 h, dose level Control, time 5 day
[3] = 100 mg/kg, 72 h, dose level Low, time 3 day
[4] = 100 mg/kg, 120 h, dose level Low, time 5 day

## C[C@](N)(Cc1ccc(O)c(O)c1)C(=O)O [METHYLDOPA]
[1]
  ABSOLUTE BASOPHIL: 0 CELLS/uL
  ABSOLUTE EOSINOPHIL: 46 CELLS/uL
  ABSOLUTE LYMPHOCYTE: 10225.67 CELLS/uL
  ABSOLUTE MONOCYTE: 319.33 CELLS/uL
  ABSOLUTE SEGMENTED NEUTROPHIL: 1242.33 CELLS/uL
  BASOPHIL: 0%
  EOSINOPHIL: 0.33%
  ERYTHROCYTE COUNT: 5.17 x10E6/uL
  HEMATOCRIT: 33.43%
  HEMOGLOBIN: 12.55 G/DL
  LEUKOCYTE COUNT: 11.83 x10E3/uL
  LYMPHOCYTE: 86.5%
  MEAN CORPUSCULAR HEMOGLOBIN: 24.35 pg
  MEAN CORPUSCULAR HEMOGLOBIN CONCENTRATION: 37.57 G/DL
  MEAN CORPUSCULAR VOLUME: 64.8 fL
  MONOCYTE: 2.67%
  NEUTROPHIL: 10.5%
  NUCLEATED RED BLOOD CELLS: 0.17 /100WBC
  PLATELET COUNT: 1026.17 x10E3/uL
  ALANINE AMINOTRANSFERASE: 52.67 u/L
  ALBUMIN: 4.17 G/DL
  ALKALINE PHOSPHATASE: 331 u/L
  ASPARTATE AMINOTRANSFERASE: 92.33 u/L
  BLOOD UREA NITROGEN: 15.33 mg/dL
  CARBON DIOXIDE: 26.17 mmol/L
  CHLORIDE: 103.17 MEQ/L
  CHOLESTEROL: 73.67 mg/dL
  CREATINE PHOSPHOKINASE: 472.83 u/L
  CREATININE: 0.29 mg/dL
  GLUCOSE: 178.5 mg/dL
  LACTATE DEHYDROGENASE: 244.83 u/L
  LIPASE: 10.67 u/L
  PHOSPHORUS: 12.45 mg/dL
  POTASSIUM: 6.35 MEQ/L
  SODIUM: 144.27 MEQ/L
  TOTAL BILIRUBIN: 0.13 mg/dL
  TOTAL PROTEIN: 5.77 G/DL
  URIC ACID: 2.08 mg/dL
[2]
  ABSOLUTE BASOPHIL: 0 CELLS/uL
  ABSOLUTE EOSINOPHIL: 23.5 CELLS/uL
  ABSOLUTE LYMPHOCYTE: 12797.33 CELLS/uL
  ABSOLUTE MONOCYTE: 465.5 CELLS/uL
  ABSOLUTE SEGMENTED NEUTROPHIL: 1313.67 CELLS/uL
  BASOPHIL: 0%
  EOSINOPHIL: 0.17%
  ERYTHROCYTE COUNT: 5.76 x10E6/uL
  HEMATOCRIT: 36.72%
  HEMOGLOBIN: 13.72 G/DL
  LEUKOCYTE COUNT: 14.6 x10E3/uL
  LYMPHOCYTE: 87.5%
  MEAN CORPUSCULAR HEMOGLOBIN: 23.8 pg
  MEAN CORPUSCULAR HEMOGLOBIN CONCENTRATION: 37.35 G/DL
  MEAN CORPUSCULAR VOLUME: 63.72 fL
  MONOCYTE: 3.17%
  NEUTROPHIL: 9.17%
  NUCLEATED RED BLOOD CELLS: 0.33 /100WBC
  PLATELET COUNT: 1270.67 x10E3/uL
  ALANINE AMINOTRANSFERASE: 50.5 u/L
  ALBUMIN: 4.32 G/DL
  ALKALINE PHOSPHATASE: 339.67 u/L
  ASPARTATE AMINOTRANSFERASE: 88 u/L
  BLOOD UREA NITROGEN: 17 mg/dL
  CARBON DIOXIDE: 25 mmol/L
  CHLORIDE: 103.83 MEQ/L
  CHOLESTEROL: 71.33 mg/dL
  CREATINE PHOSPHOKINASE: 281.83 u/L
  CREATININE: 0.26 mg/dL
  GLUCOSE: 161.67 mg/dL
  LACTATE DEHYDROGENASE: 191.17 u/L
  LIPASE: 10.17 u/L
  PHOSPHORUS: 11.72 mg/dL
  POTASSIUM: 6.76 MEQ/L
  SODIUM: 145.17 MEQ/L
  TOTAL BILIRUBIN: 0.2 mg/dL
  TOTAL PROTEIN: 6.15 G/DL
  URIC ACID: 2 mg/dL
[3]
  ABSOLUTE BASOPHIL: 0 CELLS/uL
  ABSOLUTE EOSINOPHIL: 0 CELLS/uL
  ABSOLUTE LYMPHOCYTE: 10758.67 CELLS/uL
  ABSOLUTE MONOCYTE: 142 CELLS/uL
  ABSOLUTE SEGMENTED NEUTROPHIL: 1766 CELLS/uL
  BASOPHIL: 0%
  EOSINOPHIL: 0%
  ERYTHROCYTE COUNT: 5.69 x10E6/uL
  HEMATOCRIT: 36.1%
  HEMOGLOBIN: 13.63 G/DL
  LEUKOCYTE COUNT: 12.67 x10E3/uL
  LYMPHOCYTE: 85.33%
  MEAN CORPUSCULAR HEMOGLOBIN: 24.03 pg
  MEAN CORPUSCULAR HEMOGLOBIN CONCENTRATION: 37.8 G/DL
  MEAN CORPUSCULAR VOLUME: 63.63 fL
  MONOCYTE: 1%
  NEUTROPHIL: 13.67%
  NUCLEATED RED BLOOD CELLS: 0 /100WBC
  PLATELET COUNT: 1351.33 x10E3/uL
  ALANINE AMINOTRANSFERASE: 54 u/L
  ALBUMIN: 4.2 G/DL
  ALKALINE PHOSPHATASE: 332.33 u/L
  ASPARTATE AMINOTRANSFERASE: 92.67 u/L
  BLOOD UREA NITROGEN: 19.33 mg/dL
  CARBON DIOXIDE: 25.67 mmol/L
  CHLORIDE: 102.67 MEQ/L
  CHOLESTEROL: 84 mg/dL
  CREATINE PHOSPHOKINASE: 281.67 u/L
  CREATININE: 0.24 mg/dL
  GLUCOSE: 161.33 mg/dL
  LACTATE DEHYDROGENASE: 210.33 u/L
  LIPASE: 13 u/L
  PHOSPHORUS: 12.67 mg/dL
  POTASSIUM: 7.2 MEQ/L
  SODIUM: 145.7 MEQ/L
  TOTAL BILIRUBIN: 0.23 mg/dL
  TOTAL PROTEIN: 6.07 G/DL
  URIC ACID: 2.93 mg/dL
[4]
  ABSOLUTE BASOPHIL: 0 CELLS/uL
  ABSOLUTE EOSINOPHIL: 0 CELLS/uL
  ABSOLUTE LYMPHOCYTE: 9543.67 CELLS/uL
  ABSOLUTE MONOCYTE: 215.33 CELLS/uL
  ABSOLUTE SEGMENTED NEUTROPHIL: 1341 CELLS/uL
  BASOPHIL: 0%
  EOSINOPHIL: 0%
  ERYTHROCYTE COUNT: 5.03 x10E6/uL
  HEMATOCRIT: 32.97%
  HEMOGLOBIN: 12.67 G/DL
  LEUKOCYTE COUNT: 11.1 x10E3/uL
  LYMPHOCYTE: 86%
  MEAN CORPUSCULAR HEMOGLOBIN: 25.17 pg
  MEAN CORPUSCULAR HEMOGLOBIN CONCENTRATION: 38.47 G/DL
  MEAN CORPUSCULAR VOLUME: 65.47 fL
  MONOCYTE: 1.67%
  NEUTROPHIL: 12.33%
  NUCLEATED RED BLOOD CELLS: 0 /100WBC
  PLATELET COUNT: 979.33 x10E3/uL
  ALANINE AMINOTRANSFERASE: 56.67 u/L
  ALBUMIN: 4.1 G/DL
  ALKALINE PHOSPHATASE: 363.67 u/L
  ASPARTATE AMINOTRANSFERASE: 90 u/L
  BLOOD UREA NITROGEN: 17 mg/dL
  CARBON DIOXIDE: 24.33 mmol/L
  CHLORIDE: 103.33 MEQ/L
  CHOLESTEROL: 67 mg/dL
  CREATINE PHOSPHOKINASE: 265.33 u/L
  CREATININE: 0.56 mg/dL
  GLUCOSE: 159 mg/dL
  LACTATE DEHYDROGENASE: 154.33 u/L
  LIPASE: 13.33 u/L
  PHOSPHORUS: 11.83 mg/dL
  POTASSIUM: 6.26 MEQ/L
  SODIUM: 145.33 MEQ/L
  TOTAL BILIRUBIN: 0.17 mg/dL
  TOTAL PROTEIN: 5.8 G/DL
  URIC ACID: 1.6 mg/dL

From ChEMBL document CHEMBL3885881, “DrugMatrix”
